Assay results: patent US5304474A, “Hydrophobic peptide esters and amides” (Board of Regents, The University of Texas System, priority 1991, dated 1994)

Key:
[1] = test system: B6 spleen cells (NK, allospecific cytotoxic T cells); conditions: 250 micro-M (ref. 12); cited from earlier work
[2] = test system: natural killer cells (NK); assay: NK function: lysis of K562 target cells (51Cr release) after preincubation of lymphocytes with compound
[3] = test system: peripheral blood lymphocytes (PBL); assay: [3H]Leu-Leu-OMe uptake/binding by lymphocytes; type: in vitro ADME, human
Protocol: (§1) Human peripheral blood lymphocytes (PBL) were incubated in the presence of [^3 H]labeled Leu-Leu-OMe at 22° C. for varying lengths of time. The incubation mixture was then centrifuged through silicone oil to separate the cells from any unbound or non-internalized [^3 HLeu-Leu-OMe. […] At 37° C., levels of [^3 H]Leu-Leu-OMe accumulation by PBL were increased above those seen at 22° C. (see Table 4).

[4] = test system: renal cell carcinoma line, Currie; assay: 51Cr release toxicity assay
Protocol: (§3) In some experiments, toxicity of Leu-Leu-OMe for a variety of cell populations was assessed by ^51 Cr release In assays where cells obtained from suspension culture were to be used, cells were labeled with Na2^51 CrO4 (ICN, Plainview, N.Y.) for 60-90 minutes at 37° C. and then washed three times. Cells were then suspended in PBS (2.5×10^6 /ml) and incubated in microtiter plates, 50 microL/well with indicated concentrations of Leu-Leu-OMe for 15 minutes at room temperature. […] Following ^51 Cr labeling, wells were thoroughly washed and varying concentrations of Leu-Leu-OMe added in 50 microL PBS and the plates incubated for 15 minutes at room temperature.
(§4) Following such initial serum-free incubations, 200 microL/well of medium RPMI containing 10% FBS were added and the plates incubated for another 4 hours prior to removal of 100 microliters of supernatant. Radioactivity in the supernatant was measured in an auto-gamma scintillation spectrometer (Packard Instrument Co., Downers Grove, Ill.). The percent specific release was calculated from the formula: [formula] in which maximal release refers to cpm obtained in wells containing 50% lysing agent (American Scientific Products, McGraw Park, Ill.) and spontaneous release refers to cpm released by cells incubated in control medium in the absence of Leu-Leu-OMe or the lysing agent.

[5] = test system: [^3 H]Leu-Leu-OMe uptake by PBL (facilitated transport); assay: Competitive inhibition of [3H]Leu-Leu-OMe uptake; type: cell-based, human
Protocol: as §1

hemopoietic stem cells = assay: Stem cell function: splenic 125I-UdR uptake 5 d after transfer into irradiated syngeneic recipients; type: in vivo, mice; conditions: 250 micro-M
Protocol: Bone marrow cells or marrow and spleen cell mixtures were incubated in PBS with or without 250 micro-M Leu-Leu-OMe as above and then infused into 950 cGy irradiated syngeneic recipients. 5 d later, splenic 5-iodo-2'-deoxyuridine-^125 I (^125 I-UdR) uptake was measured as previously described (15).
To assay the effects of Leu-Leu-OMe on hemopoietic stem cells, we incubated marrow or mixtures of marrow and spleen cells in PBS with or without Leu-Leu-OMe and measured splenic ^125 I-UdR uptake 5 d after transplantation into irradiated syngeneic recipients (18). […] Since human marrow obtained for use in transplantation has variable amounts of peripheral blood contamination, we also studied the stem cell function of a mixture of murine spleen and marrow incubated with Leu-Leu-OMe. […] Histological studies were conducted of spleens from irradiated mice. B6 mice were irradiated with 950 cGy and given no marrow (irradiation control), or given syngeneic bone marrow cells that had been incubated in PBS with or without 250 micro-M Leu-Leu-OMe. 5 d later spleens were examined histologically. Irradiation control spleens were sparsely populated, with no hemopoietic elements. Recipients of marrow treated with 250 micro-M Leu-Leu-OMe had the vast majority of their splenic red pulp packed with erythroblasts, but also had numerous peritrabecular areas containing megakaryocytes and granulocytic elements.

[6] = test system: human umbilical vein endothelial cells; assay: 51Cr release toxicity assay
Protocol: as §3, §4

[7] = Activity and appearance of mice post-injection; type: in vivo, C3H/HeJ mice; conditions: 15-30 minutes post-injection, about 1×10^-3 moles per kg tail-vein
Protocol: (§2) Leu-Leu-OMe or Leu-Phe-OMe were suspended in PBS, pH 7.4. Then individual C3H/HeJ mice (25 gram size) were administered by tail-vein injection either 2.5×10^-5 moles (6.5 mg) of Leu-Leu-OMe, 2.5×10^-5 moles (7.1 mg) Leu-Phe-OMe, or an equal volume of the PBS diluent, this dose being about 1×10^-3 moles per kg. […] Subsequent to this quiescent period no difference in activity or appearance in the mice was noted. Two hours post-injection, the mice were sacrificed and their spleen cells were assayed for NK function in a standard 4 hour assay against YAC-1 tumor targets. In all mice, total cell recovery ranged […] spleen cells per animal. […] Thus, Leu-Leu-OMe or Leu-Phe-OMe caused a greater than 75% decrease in splenic lytic activity against YAC-1 tumor targets.

[8] = test system: splenic NK function (YAC-1 tumor targets); assay: Spleen cell NK function against YAC-1 after tail-vein injection; type: in vivo, C3H/HeJ mice
Protocol: as §2

CTL precursors = assay: Elimination of cytotoxic T lymphocytes (6 day MLC, lysis of allogeneic stimulator lymphoblasts); type: cell-based, human
Protocol: Experiments were also designed to assess the relative sensitivity of NK and CTL to Leu-Leu-OMe. In the studies detailed in FIGS. 8 and 9, cytotoxicity assays were performed over a broad range of E:T ratios and units of lytic activity arising from equal numbers of responding lymphocytes were calculated and compared. […] Only after exposure to greater than 250 micromolar Leu-Leu-OMe were all CTL precursors eliminated.
Non-adherent lymphocytes (2.5×10^6 /ml) were incubated with the indicated concentrations of Leu-Leu-OMe for 15 minutes. Cells were then washed and either placed in mixed lymphocyte culture or assayed for specific lysis of K562 cells (NK). After 6 day MLC, cells were assayed for specific lysis of allogeneic stimulator lymphoblasts (CTL) or K562 (AcNK). Data are expressed as percent of control lytic units (mean+SEM, n=6).
Both values were also higher than the mean concentration of Leu-Leu-OMe required to diminish spontaneous NK lytic activity by 75% (35 micromolar±4 micromolar). […] Thus, only after MLC activation did CTL display a sensitivity to Leu-Leu-OMe toxicity that was equal to that of NK cells.

[9] = test system: B6 spleen cells (NK, allospecific cytotoxic T cells); assay: Cytotoxic function of B6 spleen cells after incubation; type: cell-based, murine
[10] = test system: epidermal carcinoma line, HEp-2; assay: 51Cr release toxicity assay
Protocol: as §3, §4

B Cells = assay: Leu-Leu-OMe sensitivity of cell type; type: cell-based, human
[11] = 100 micromolar, 15 minutes (FIG. 8)

COC(=O)[C@H](CC(C)C)NC(=O)[C@@H](N)CC(C)C [Leu-Leu-OMe, L-leucyl-L-leucine methyl ester]
allocytotoxicity [1]: near total ablation of allocytotoxicity
NK Function % Specific Lysis K562 ([2]; 12.50 micro-M, Nil 66 (Table 14)): 60%
NK Function % Specific Lysis K562 ([2]; 25.00 micro-M, Nil 66 (Table 14)): 12%
NK Function % Specific Lysis K562 ([2]; 50 micro-M, Nil 40.8 (Table 16)): 1.1%
NK Function % Specific Lysis K562 ([2]; 50.00 micro-M, Nil 66 (Table 14)): 2%
NK Function % Specific Lysis K562 ([2]; 100.00 micro-M, Nil 66 (Table 14)): < 1%
spontaneous NK lytic units [2, 11]: totally eliminated
concentration resulting in loss of K562 target binding and complete depletion of Leu 11b stained cells ([2]; MP-depleted lymphocytes): greater than 50 micromolar
concentration above which no NK function could be detected ([2]; MP-depleted lymphocytes, 15 minutes room temperature (FIG. 4)): greater than 50 micromolar
Leu--Leu--OMe Sensitivity (LD50) ([2]; NK Cells): 35 micro-M
concentration causing maximal depletion of NK ([2]; antibody staining (FIG. 6) and functional studies (FIG. 4)): 100 µM
NK Toxicity (LD50) ([2]; concentration which results in 50% loss of human NK function, PBL 15 minutes at 22° C.): 35 micro-M
concentration in excess of which NK toxic effects are seen ([2]; lymphocytes exposed 15 minutes at room temperature): > 12.5 micro-M
mean concentration required to diminish lytic activity by 75% ([2]; spontaneous NK): 35 µM
Km ([3]; 15 minute incubation at 22° C.): ~100 µM
Vmax of uptake ([3]; 15 minute incubation at 22° C.): approximately 10^-10 moles/minute/10^6 cells
external concentration of near maximal uptake ([3]; 15 minute incubation at 22° C. (FIG. 11)): 250-500 micro-M
51Cr release [4]: no significant Leu-Leu-OMe induced ^51 Cr release
subsequent proliferative capacity ([4]; 500 micromolar): had no discernible effect on subsequent proliferative capacity
Leu--Leu--OMe Sensitivity (LD50) ([4]; Renal Cell Carcinoma): > 500 micro-M
competitive inhibition of [3H]Leu-Leu-OMe uptake, in words [5]: competitively inhibited
inhibition at 250 µM ([5]; Homo sapiens, unlabeled compound 250 microM, [3H]Leu-Leu-OMe 10 microM (Table 5)): 72%
effect on stem cell function, in words (hemopoietic stem cells): had no deleterious effect on this measure of stem cell function
51Cr release [6]: no significant Leu-Leu-OMe induced ^51 Cr release
subsequent proliferative capacity ([6]; 500 micromolar): had no discernible effect on subsequent proliferative capacity
Leu--Leu--OMe Sensitivity (LD50) ([6]; Endothelial Cells): > 500 micro-M
activity and appearance post-injection [7]: exhibited decreased activity and an apparent increase in sleep
Percent lysis of target cells ([8]; E:T 25:1, 2.5×10^-5 moles per mouse tail-vein, 2 hours post-injection, Control 8.29): 2.37%
Percent lysis of target cells ([8]; E:T 50:1, same dosing, Control 12.88): 4.58%
Percent lysis of target cells ([8]; E:T 100:1, same dosing, Control 20.60): 7.12%
Percent lysis of target cells ([8]; E:T 200:1, same dosing, Control 29.29): 12.77%
decrease in splenic lytic activity against YAC-1 tumor targets ([8]; about 1×10^-3 moles per kg tail-vein): greater than 75%
CTL precursors still present, of control levels (CTL precursors; [11]): greater than 50%
concentration above which all CTL precursors eliminated (CTL precursors; 15 minutes (FIG. 8)): greater than 250 micromolar
sensitivity of CTL and AcNK following activation (CTL precursors; after 6 day MLC, 15 minutes incubation (FIG. 9)): became identical in sensitivity to Leu-Leu-OMe
mean concentration required to diminish lytic activity by 75% (CTL precursors; elimination of CTL precursors): 123 ± 25 µM
NK function of B6 spleen cells ([9]; 100 micro-M): complete loss of NK function
generation of allospecific cytotoxic T cells ([9]; 100 micro-M): only partial reduction of the generation of allospecific cytotoxic T cells
cells with cytotoxic potential that remain ([9]; single treatment with 250 micro-M): < 5%
51Cr release [10]: no significant Leu-Leu-OMe induced ^51 Cr release
subsequent proliferative capacity ([10]; 500 micromolar): had no discernible effect on subsequent proliferative capacity
Leu--Leu--OMe Sensitivity (LD50) (B Cells): > 500 micro-M
